Source: patent US12077503B2, “Substituted cyclic amides and their use as herbicides” (FMC CORPORATION, priority 2015, dated 2024)

Tests used:
Assay in all cases: Test C preemergence
Type in all cases: in vivo
[1] = system: velvetleaf (Abutilon theophrasti); settings: for Plant response rating, Velvetleaf: scale 0 to 100, 0 no effect, 100 complete control
Procedure, shortened: (§1)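 Visual rating, 0–100 scale (0 = no effect, 100 = complete control) versus controls, 13–15 d after treatment. Compounds in non-phytotoxic solvent plus surfactant; applied preemergence to seeds in loam/sand soil or postemergence to 1- to 4-leaf plants (2–18 cm) in peat/vermiculite medium; greenhouse-held.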

[2] = system: ryegrass, Italian (Italian ryegrass, Lolium multiflorum); settings: for Plant response rating, Ryegrass, Italian: scale 0 to 100, 0 no effect, 100 complete control
Procedure, shortened: as §1

[3] = system: johnsongrass (Sorghum halepense); settings: for Plant response rating, Johnsongrass: scale 0 to 100, 0 no effect, 100 complete control
Procedure, shortened: as §1

[4] = system: Galium (catchweed bedstraw, Galium aparine); settings: for Plant response rating, Galium: scale 0 to 100, 0 no effect, 100 complete control
Procedure, shortened: as §1

[5] = system: waterhemp (common waterhemp, Amaranthus rudis); settings: for Plant response rating, Waterhemp: scale 0 to 100, 0 no effect, 100 complete control
Procedure, shortened: as §1

[6] = system: morningglory (Ipomoea coccinea); settings: for Plant response rating, Morningglory: scale 0 to 100, 0 no effect, 100 complete control
Procedure, shortened: as §1

[7] = system: lambsquarters (Chenopodium album); settings: for Plant response rating, Lambsquarters: scale 0 to 100, 0 no effect, 100 complete control
Procedure, shortened: as §1

[8] = system: ragweed (common ragweed, Ambrosia elatior); settings: for Plant response rating, Ragweed: scale 0 to 100, 0 no effect, 100 complete control
Procedure, shortened: as §1

[9] = system: nutsedge, yellow (yellow nutsedge, Cyperus esculentus); settings: for Plant response rating, Nutsedge, Yellow: scale 0 to 100, 0 no effect, 100 complete control
Procedure, shortened: as §1

[10] = system: blackgrass (Alopecurus myosuroides); settings: for Plant response rating, Blackgrass: scale 0 to 100, 0 no effect, 100 complete control
Procedure, shortened: as §1

[11] = system: foxtail, giant (giant foxtail, Setaria faberii); settings: for Plant response rating, Foxtail, Giant: scale 0 to 100, 0 no effect, 100 complete control
Procedure, shortened: as §1

[12] = system: wheat (winter wheat, Triticum aestivum); settings: for Plant response rating, Wheat: scale 0 to 100, 0 no effect, 100 complete control
Procedure, shortened: as §1

[13] = system: pigweed (Amaranthus retroflexus); settings: for Plant response rating, Pigweed: scale 0 to 100, 0 no effect, 100 complete control
Procedure, shortened: as §1

corn (Zea mays) = settings: for Plant response rating, Corn: scale 0 to 100, 0 no effect, 100 complete control
Procedure, shortened: as §1

[14] = system: oilseed rape (Brassica napus); settings: for Plant response rating, Oilseed Rape: scale 0 to 100, 0 no effect, 100 complete control
Procedure, shortened: as §1

[15] = system: crabgrass, large (large crabgrass, Digitaria sanguinalis); settings: for Plant response rating, Crabgrass, Large: scale 0 to 100, 0 no effect, 100 complete control
Procedure, shortened: as §1

soybean (Glycine max) = settings: scale 0 to 100, 0 no effect, 100 complete control
Procedure, shortened: as §1

[16] = system: barnyardgrass (Echinochloa crus-galli); settings: for Plant response rating, Barnyardgrass: scale 0 to 100, 0 no effect, 100 complete control
Procedure, shortened: as §1

[17] = 31 g ai/ha, 0 is no effect, 100 is complete control

Cc1cccc(C2CN(C)C(=O)C2C(=O)Nc2cccc(F)c2F)c1 (centres unmarked) [Compound 667] was tested. Which “Plant response rating (scale of 0 to 100), Velvetleaf” value [1, 17] did it give?
Its value is 5.

And the “Plant response rating, Velvetleaf” value ([1]; 62 g ai/ha)?
The value was 30.

What about the “Plant response rating, Velvetleaf” value ([1]; 125 g ai/ha) of the same compound?
Its value is 50.

What about the “Plant response rating, Velvetleaf” value ([1]; 250 g ai/ha) of the same compound?
The value was 40.

And the “Plant response rating (scale of 0 to 100), Ryegrass, Italian” value [2, 17]?
Its value is 60.

And the “Plant response rating, Ryegrass, Italian” value ([2]; 62 g ai/ha)?
The value was 70.

And the “Plant response rating, Ryegrass, Italian” value ([2]; 125 g ai/ha)?
The value was 95.

What about the “Plant response rating, Ryegrass, Italian” value ([2]; 250 g ai/ha) of the same compound?
The value was 98.

What about the “Plant response rating (scale of 0 to 100), Johnsongrass” value [3, 17] of the same compound?
Its value is 70.

What about the “Plant response rating, Johnsongrass” value ([3]; 62 g ai/ha) of the same compound?
Its value is 80.

What about the “Plant response rating, Johnsongrass” value ([3]; 125 g ai/ha) of the same compound?
The value was 85.

What about the “Plant response rating, Johnsongrass” value ([3]; 250 g ai/ha) of the same compound?
Its value is 90.

What about the “Plant response rating (scale of 0 to 100), Galium” value [4, 17] of the same compound?
Its value is 10.

What about the “Plant response rating, Galium” value ([4]; 62 g ai/ha) of the same compound?
The value was 100.

And the “Plant response rating, Galium” value ([4]; 125 g ai/ha)?
Its value is 98.

What about the “Plant response rating, Galium” value ([4]; 250 g ai/ha) of the same compound?
Its value is 90.

And the “Plant response rating (scale of 0 to 100), Waterhemp” value [5, 17]?
The value was 0.

And the “Plant response rating, Waterhemp” value ([5]; 62 g ai/ha)?
The value was 10.

What about the “Plant response rating, Waterhemp” value ([5]; 125 g ai/ha) of the same compound?
Its value is 60.

What about the “Plant response rating, Waterhemp” value ([5]; 250 g ai/ha) of the same compound?
The value was 75.

And the “Plant response rating (scale of 0 to 100), Morningglory” value [6, 17]?
Its value is 0.

What about the “Plant response rating, Morningglory” value ([6]; 62 g ai/ha) of the same compound?
The value was 0.

What about the “Plant response rating, Morningglory” value ([6]; 125 g ai/ha) of the same compound?
Its value is 0.

What about the “Plant response rating, Morningglory” value ([6]; 250 g ai/ha) of the same compound?
Its value is 10.

What about the “Plant response rating (scale of 0 to 100), Lambsquarters” value [7, 17] of the same compound?
The value was 50.

And the “Plant response rating, Lambsquarters” value ([7]; 62 g ai/ha)?
The value was 70.

And the “Plant response rating, Lambsquarters” value ([7]; 125 g ai/ha)?
The value was 90.

And the “Plant response rating, Lambsquarters” value ([7]; 250 g ai/ha)?
Its value is 100.

What about the “Plant response rating (scale of 0 to 100), Ragweed” value [8, 17] of the same compound?
The value was 25.

What about the “Plant response rating, Ragweed” value ([8]; 62 g ai/ha) of the same compound?
The value was 100.

And the “Plant response rating, Ragweed” value ([8]; 125 g ai/ha)?
The value was 70.

What about the “Plant response rating, Ragweed” value ([8]; 250 g ai/ha) of the same compound?
Its value is 80.

And the “Plant response rating (scale of 0 to 100), Nutsedge, Yellow” value [9, 17]?
Its value is 0.

And the “Plant response rating, Nutsedge, Yellow” value ([9]; 62 g ai/ha)?
The value was 0.

And the “Plant response rating, Nutsedge, Yellow” value ([9]; 125 g ai/ha)?
The value was 0.

And the “Plant response rating, Nutsedge, Yellow” value ([9]; 250 g ai/ha)?
Its value is 25.

What about the “Plant response rating (scale of 0 to 100), Blackgrass” value [10, 17] of the same compound?
Its value is 50.

What about the “Plant response rating, Blackgrass” value ([10]; 62 g ai/ha) of the same compound?
Its value is 80.

What about the “Plant response rating, Blackgrass” value ([10]; 125 g ai/ha) of the same compound?
Its value is 85.

And the “Plant response rating, Blackgrass” value ([10]; 250 g ai/ha)?
Its value is 95.

And the “Plant response rating (scale of 0 to 100), Foxtail, Giant” value [11, 17]?
Its value is 95.

And the “Plant response rating, Foxtail, Giant” value ([11]; 62 g ai/ha)?
Its value is 98.

What about the “Plant response rating, Foxtail, Giant” value ([11]; 125 g ai/ha) of the same compound?
The value was 98.

What about the “Plant response rating, Foxtail, Giant” value ([11]; 250 g ai/ha) of the same compound?
Its value is 100.

And the “Plant response rating (scale of 0 to 100), Wheat” value [12, 17]?
Its value is 0.

What about the “Plant response rating, Wheat” value ([12]; 62 g ai/ha) of the same compound?
Its value is 10.

And the “Plant response rating, Wheat” value ([12]; 125 g ai/ha)?
The value was 55.

What about the “Plant response rating, Wheat” value ([12]; 250 g ai/ha) of the same compound?
Its value is 50.

And the “Plant response rating (scale of 0 to 100), Pigweed” value [13, 17]?
Its value is 40.

What about the “Plant response rating, Pigweed” value ([13]; 62 g ai/ha) of the same compound?
The value was 50.

And the “Plant response rating, Pigweed” value ([13]; 125 g ai/ha)?
Its value is 50.

And the “Plant response rating, Pigweed” value ([13]; 250 g ai/ha)?
The value was 70.

What about the “Plant response rating (scale of 0 to 100), Corn” value (corn (Zea mays); [17]) of the same compound?
Its value is 55.

And the “Plant response rating, Corn” value (corn (Zea mays); 62 g ai/ha)?
Its value is 70.

And the “Plant response rating, Corn” value (corn (Zea mays); 125 g ai/ha)?
Its value is 80.

And the “Plant response rating, Corn” value (corn (Zea mays); 250 g ai/ha)?
Its value is 85.

What about the “Plant response rating (scale of 0 to 100), Oilseed Rape” value [14, 17] of the same compound?
Its value is 35.

What about the “Plant response rating, Oilseed Rape” value ([14]; 62 g ai/ha) of the same compound?
The value was 85.

What about the “Plant response rating, Oilseed Rape” value ([14]; 125 g ai/ha) of the same compound?
Its value is 85.

What about the “Plant response rating, Oilseed Rape” value ([14]; 250 g ai/ha) of the same compound?
Its value is 90.

What about the “Plant response rating (scale of 0 to 100), Crabgrass, Large” value [15, 17] of the same compound?
The value was 95.

And the “Plant response rating, Crabgrass, Large” value ([15]; 62 g ai/ha)?
Its value is 95.

What about the “Plant response rating, Crabgrass, Large” value ([15]; 125 g ai/ha) of the same compound?
The value was 98.

And the “Plant response rating, Crabgrass, Large” value ([15]; 250 g ai/ha)?
Its value is 98.

What about the “Plant response rating, Soybean” value (soybean (Glycine max); 62 g ai/ha) of the same compound?
The value was 10.

And the “Plant response rating, Soybean” value (soybean (Glycine max); 125 g ai/ha)?
Its value is 0.

And the “Plant response rating, Soybean” value (soybean (Glycine max); 250 g ai/ha)?
Its value is 0.

And the “Plant response rating (scale of 0 to 100), Barnyardgrass” value [16, 17]?
The value was 95.

What about the “Plant response rating, Barnyardgrass” value ([16]; 62 g ai/ha) of the same compound?
Its value is 95.

What about the “Plant response rating, Barnyardgrass” value ([16]; 125 g ai/ha) of the same compound?
Its value is 98.

And the “Plant response rating, Barnyardgrass” value ([16]; 250 g ai/ha)?
Its value is 100.
